Assay results: patent publication US20090197893A1 (Bristol-Myers Squibb Company, priority 2005, published 2009)
Where two headings read alike, the source gives them in different places.

What was measured:
CML patients = settings: cited from earlier work; for patients who developed resistance to imatinib: 4 years of follow-up
[1] = system: imatinib-resistant BCR-ABL mutants; settings: cited from earlier work
wild-type BCR-ABL = settings: cited from earlier work
[2] = system: patients with advanced CML or Ph+ ALL with imatinib resistance/intolerance; experiment: Dasatinib dose escalation clinical trial: cytogenetic response; settings: for Cytogenetic response: CCyR / Cytogenetic response: Major CyR / Cytogenetic response: Minimal CyR / Cytogenetic response: Overall CyR / Cytogenetic response: PCyR / Cytogenetic response: Minor CyR: patients n (%)
[3] = Plasma pharmacokinetics in patients; format: in vivo, human; settings: T315I patients; FIG. 2b
p-glycoprotein = p-glycoprotein (Homo sapiens, UniProt P08183); settings: cited from earlier work
[4] = system: patients with advanced CML or Ph+ ALL with imatinib resistance/intolerance; experiment: Dasatinib dose escalation clinical trial: hematologic response; settings: for Hematologic response: CHR / Hematologic response: Major HR / Hematologic response: NEL / Hematologic response: Minor HR: patients n (%); for patients who responded: p=0.049
[5] = AP (N = 11), regardless of relationship to treatment, patients n (%)
[6] = AP-CML (N = 11), patients n (%)
[7] = LBC/ALL (N = 10), patients n (%)
[8] = LBC/ALL (N = 10), regardless of relationship to treatment, patients n (%)
[9] = LBC/Ph+ ALL (N = 10), patients n (%)
[10] = MBC N = (23), regardless of relationship to treatment, patients n (%)

Sequence of p-glycoprotein (P08183 whole entry): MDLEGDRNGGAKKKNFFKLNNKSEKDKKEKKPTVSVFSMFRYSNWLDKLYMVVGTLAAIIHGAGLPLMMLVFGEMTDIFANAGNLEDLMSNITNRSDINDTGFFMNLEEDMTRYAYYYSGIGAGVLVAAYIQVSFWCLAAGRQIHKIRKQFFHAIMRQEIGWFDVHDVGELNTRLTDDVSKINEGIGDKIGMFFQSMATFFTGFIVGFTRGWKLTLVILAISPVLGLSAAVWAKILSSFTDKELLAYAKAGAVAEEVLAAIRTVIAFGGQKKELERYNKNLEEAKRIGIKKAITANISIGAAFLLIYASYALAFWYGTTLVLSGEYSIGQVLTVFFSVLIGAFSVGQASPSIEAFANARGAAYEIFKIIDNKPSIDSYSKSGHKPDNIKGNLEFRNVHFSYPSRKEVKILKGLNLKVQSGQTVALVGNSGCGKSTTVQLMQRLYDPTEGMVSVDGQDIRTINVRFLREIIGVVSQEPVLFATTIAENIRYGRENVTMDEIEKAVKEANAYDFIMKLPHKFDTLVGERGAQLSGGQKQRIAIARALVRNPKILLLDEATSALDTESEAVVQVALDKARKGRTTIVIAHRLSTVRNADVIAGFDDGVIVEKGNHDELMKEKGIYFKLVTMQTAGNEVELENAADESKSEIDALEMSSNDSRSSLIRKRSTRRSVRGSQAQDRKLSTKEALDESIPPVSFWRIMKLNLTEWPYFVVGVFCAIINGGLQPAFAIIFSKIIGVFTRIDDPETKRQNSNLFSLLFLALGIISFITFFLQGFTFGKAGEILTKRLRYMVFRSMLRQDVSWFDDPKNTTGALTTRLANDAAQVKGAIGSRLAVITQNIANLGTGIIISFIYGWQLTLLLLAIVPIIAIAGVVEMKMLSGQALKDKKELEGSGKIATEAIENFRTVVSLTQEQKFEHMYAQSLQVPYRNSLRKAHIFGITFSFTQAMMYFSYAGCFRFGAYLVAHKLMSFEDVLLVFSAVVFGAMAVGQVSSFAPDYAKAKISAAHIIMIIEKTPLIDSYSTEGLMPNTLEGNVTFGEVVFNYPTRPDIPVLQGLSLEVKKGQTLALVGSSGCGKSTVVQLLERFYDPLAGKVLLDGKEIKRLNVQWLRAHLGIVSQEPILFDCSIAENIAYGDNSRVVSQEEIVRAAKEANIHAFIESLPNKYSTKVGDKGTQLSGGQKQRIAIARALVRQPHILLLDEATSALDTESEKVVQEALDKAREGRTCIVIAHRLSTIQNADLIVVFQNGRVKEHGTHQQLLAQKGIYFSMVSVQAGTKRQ

Structure (SMILES): Cc1ccc(NC(=O)c2ccc(CN3CCN(C)CC3)cc2)cc1Nc1nccc(-c2cccnc2)n1 [imatinib]
- patients who developed resistance to imatinib (CML patients; AP CML patients): 75%
- patients who developed resistance to imatinib (CML patients; BC patients): 95%
- estimated 2-year incidence of resistance (CML patients; blastic phase): 80%
- estimated 2-year incidence of resistance (CML patients; chronic phase post-interferon-α failure): 10%

Structure (SMILES): Cc1cn(-c2cc(NC(=O)c3ccc(C)c(Nc4nccc(-c5cccnc5)n4)c3)cc(C(F)(F)F)c2)cn1 [AMN107]
- imatinib-resistant BCR-ABL mutants against which significantly active [1]: 32/33

Structure (SMILES): Cc1nc(Nc2ncc(C(=O)Nc3c(C)cccc3Cl)s2)cc(N2CCN(CCO)CC2)n1 [dasatinib, N-(2-chloro-6-methylphenyl)-2-[[6-[4-(2-hydroxyethyl)-1-piperazinyl]-2-methyl-4-pyrimidinyl]amino]-5-thiazolecarboxamide]
- Cytogenetic response: CCyR ([2]; AP CML n = 11): 2 (18)
- Cytogenetic response: Major CyR ([2]; AP CML n = 11): 3 (27)
- Cytogenetic response: Minimal CyR ([2]; AP CML n = 11): 1 (9)
- Cytogenetic response: Overall CyR ([2]; AP CML n = 11): 4 (36)
- Cytogenetic response: PCyR ([2]; AP CML n = 11): 1 (9)
- Major cytogenetic responses ([2]; AP patients, 3/11): 27%
- Cytogenetic response: CCyR ([2]; LBC-CML/ALL n = 10): 3 (30)
- Cytogenetic response: Major CyR ([2]; LBC-CML/ALL n = 10): 8 (80)
- Cytogenetic response: Minor CyR ([2]; LBC-CML/ALL n = 10): 1 (10)
- Cytogenetic response: Overall CyR ([2]; LBC-CML/ALL n = 10): 9 (90)
- Cytogenetic response: PCyR ([2]; LBC-CML/ALL n = 10): 5 (50)
- MCyR rate ([2]; LBC/Ph+ ALL patients, 8/10): 80%
- overall cytogenetic response rate ([2]; LBC/Ph+ ALL patients, 9/10): 90%
- Cytogenetic responses ([2]; MBC patients, 12/23): 52%
- Cytogenetic response: CCyR ([2]; MBC-CML n = 23): 6 (26)
- Cytogenetic response: Major CyR ([2]; MBC-CML n = 23): 8 (35)
- Cytogenetic response: Minimal CyR ([2]; MBC-CML n = 23): 2 (9)
- Cytogenetic response: Minor CyR ([2]; MBC-CML n = 23): 2 (9)
- Cytogenetic response: Overall CyR ([2]; MBC-CML n = 23): 12 (52)
- Cytogenetic response: PCyR ([2]; MBC-CML n = 23): 2 (9)
- Cytogenetic response: CCyR ([2]; Total N = 44): 11 (25)
- Cytogenetic response: Major CyR ([2]; Total N = 44): 19 (43)
- Cytogenetic response: Minimal CyR ([2]; Total N = 44): 3 (7)
- Cytogenetic response: Minor CyR ([2]; Total N = 44): 3 (7)
- Cytogenetic response: Overall CyR ([2]; Total N = 44): 25 (57)
- Cytogenetic response: PCyR ([2]; Total N = 44): 8 (18)
- CCyR ([2]; total patient population, 11/44): 25%
- major CyR (CCyR plus PCyR) ([2]; total patient population, 19/44): 43%
- CyR ([2]; total patient population, 25/44): 57%
- maximum tolerated dose (35-120 mg BID cohorts): not defined
- Diarrhea, Grade 1-4 (AP (N = 11), patients n (%)): 5 (45)
- Dyspnea/Pulmonary edema, Grade 1-4 (AP (N = 11), patients n (%)): 3 (27)
- Flushing, Grade 1-4 (AP (N = 11), patients n (%)): 3 (27)
- Generalized edema, Grade 1-4 (AP (N = 11), patients n (%)): 1 (9)
- Headache, Grade 1-4 (AP (N = 11), patients n (%)): 3 (27)
- Nausea, Grade 1-4 (AP (N = 11), patients n (%)): 1 (9)
- On-Study Myelosuppression: ANC, Grade 3 (AP (N = 11), patients n (%)): 3 (27)
- On-Study Myelosuppression: Platelets, Grade 3 (AP (N = 11), patients n (%)): 3 (27)
- Periorbital edema, Grade 1-4 (AP (N = 11), patients n (%)): 1 (9)
- Peripheral edema, Grade 1-4 (AP (N = 11), patients n (%)): 3 (27)
- Rash, Grade 1-4 (AP (N = 11), patients n (%)): 5 (45)
- Vomiting, Grade 1-4 (AP (N = 11), patients n (%)): 1 (9)
- Elevated ALT, Grade 1-4 [5]: 8 (73)
- Elevated ALT, Grade 3-4 [5]: 1 (9)
- Elevated AST, Grade 1-4 [5]: 7 (64)
- Elevated Total bilirubin, Grade 1-4 [5]: 2 (18)
- Elevated creatinine, Grade 1-4 [5]: 2 (18)
- Hypocalcemia, Grade 1-4 [5]: 8 (73)
- Hypocalcemia, Grade 3-4 [5]: 2 (18)
- Hypomagnesemia, Grade 1-4 [5]: 5 (45)
- Grade 3 or 4 neutropenia on treatment (AP, 9/11 patients): 82%
- grade 3/4 thrombocytopenia (AP, 9/11 patients): 82%
- On-Study Myelosuppression: ANC, Grade 4 [6]: 6 (55)
- On-Study Myelosuppression: Platelets, Grade 4 [6]: 6 (55)
- Diarrhea, Grade 1-4 [7]: 2 (20)
- Dyspnea/Pulmonary edema, Grade 1-4 [7]: 1 (10)
- Generalized edema, Grade 1-4 [7]: 1 (10)
- Nausea, Grade 1-4 [7]: 1 (10)
- Periorbital edema, Grade 1-4 [7]: 1 (10)
- Peripheral edema, Grade 1-4 [7]: 1 (10)
- Pleural effusion, Grade 1-4 [7]: 2 (20)
- Rash, Grade 1-4 [7]: 1 (10)
- Vomiting, Grade 1-4 [7]: 1 (10)
- Elevated ALT, Grade 1-4 [8]: 7 (70)
- Elevated AST, Grade 1-4 [8]: 9 (90)
- Elevated Total bilirubin, Grade 1-4 [8]: 5 (50)
- Elevated creatinine, Grade 1-4 [8]: 6 (60)
- Hypocalcemia, Grade 1-4 [8]: 7 (70)
- Hypocalcemia, Grade 3-4 [8]: 3 (30)
- Hypomagnesemia, Grade 1-4 [8]: 3 (30)
- On-Study Myelosuppression: ANC, Grade 3 [9]: 2 (20)
- On-Study Myelosuppression: ANC, Grade 4 [9]: 6 (60)
- On-Study Myelosuppression: Platelets, Grade 3 [9]: 0
- On-Study Myelosuppression: Platelets, Grade 4 [9]: 7 (70)
- grade 3/4 thrombocytopenia (LBC/Ph+ ALL, 7/10 patients): 70%
- Grade 3 or 4 neutropenia on treatment (LBC/Ph+ ALL, 8/10 patients): 80%
- Diarrhea, Grade 1-4 (MBC (N = 23), patients n (%)): 5 (22)
- Diarrhea, Grade 3-4 (MBC (N = 23), patients n (%)): 1 (4)
- Dyspnea/Pulmonary edema, Grade 1-4 (MBC (N = 23), patients n (%)): 2 (9)
- Dyspnea/Pulmonary edema, Grade 3-4 (MBC (N = 23), patients n (%)): 2 (9)
- Flushing, Grade 1-4 (MBC (N = 23), patients n (%)): 1 (4)
- Headache, Grade 1-4 (MBC (N = 23), patients n (%)): 1 (4)
- Nausea, Grade 1-4 (MBC (N = 23), patients n (%)): 4 (17)
- On-Study Myelosuppression: ANC, Grade 3 (MBC (N = 23), patients n (%)): 2 (9)
- On-Study Myelosuppression: ANC, Grade 4 (MBC (N = 23), patients n (%)): 20 (87)
- On-Study Myelosuppression: Platelets, Grade 3 (MBC (N = 23), patients n (%)): 2 (9)
- On-Study Myelosuppression: Platelets, Grade 4 (MBC (N = 23), patients n (%)): 17 (74)
- Pericardial effusion, Grade 1-4 (MBC (N = 23), patients n (%)): 3 (13)
- Pericardial effusion, Grade 3-4 (MBC (N = 23), patients n (%)): 2 (9)
- Periorbital edema, Grade 1-4 (MBC (N = 23), patients n (%)): 2 (9)
- Peripheral edema, Grade 1-4 (MBC (N = 23), patients n (%)): 5 (22)
- Pleural effusion, Grade 1-4 (MBC (N = 23), patients n (%)): 8 (35)
- Pleural effusion, Grade 3-4 (MBC (N = 23), patients n (%)): 3 (13)
- Rash, Grade 1-4 (MBC (N = 23), patients n (%)): 2 (9)
- Rectal hemorrhage, Grade 1-4 (MBC (N = 23), patients n (%)): 2 (9)
- Rectal hemorrhage, Grade 3-4 (MBC (N = 23), patients n (%)): 2 (9)
- Tumor lysis syndrome, Grade 1-4 (MBC (N = 23), patients n (%)): 2 (9)
- Tumor lysis syndrome, Grade 3-4 (MBC (N = 23), patients n (%)): 2 (9)
- Vomiting, Grade 1-4 (MBC (N = 23), patients n (%)): 2 (9)
- Elevated ALT, Grade 1-4 [10]: 13 (57)
- Elevated AST, Grade 1-4 [10]: 13 (57)
- Elevated Total bilirubin, Grade 1-4 [10]: 10 (43)
- Elevated Total bilirubin, Grade 3-4 [10]: 4 (17)
- Elevated creatinine, Grade 1-4 [10]: 12 (52)
- Hypocalcemia, Grade 1-4 [10]: 21 (91)
- Hypocalcemia, Grade 3-4 [10]: 6 (26)
- Hypomagnesemia, Grade 3-4 [10]: 1 (4)
- grade 3/4 thrombocytopenia (MBC, 19/23 patients): 83%
- Grade 3 or 4 neutropenia on treatment (MBC, 22/23 patients): 96%
- severe (grade 4) myelosuppression (advanced phase CML patients): about 70%
- patients removed from the study due to a drug-related toxicity (all patients): no patient
- Grade 3/4 non-hematologic adverse events (all patients, 9/44): 20%
- non-malignant pleural effusions (often in the absence of other edema): 10 patients
- serum levels [3]: adequate
- substrate for p-glycoprotein (p-glycoprotein): not a substrate
- Hematologic response: CHR ([4]; AP CML n = 11): 5 (45)
- Hematologic response: Major HR ([4]; AP CML n = 11): 9 (81)
- Hematologic response: NEL ([4]; AP CML n = 11): 4 (36)
- patients who achieved a major HR remain on study ([4]; AP cohort, 9/11, median of 8 months (range 2-13 months)): 81%
- major HR confirmed after 4 weeks ([4]; AP patients, 6): 55%
- major HR ([4]; AP patients, 9/11): 81%
- Hematologic response: CHR ([4]; LBC-CML/ALL n = 10): 7 (70)
- Hematologic response: Major HR ([4]; LBC-CML/ALL n = 10): 8 (80)
- Hematologic response: NEL ([4]; LBC-CML/ALL n = 10): 1 (10)
- major HR confirmed after 4 weeks ([4]; LBC/Ph+ ALL, 5): 50%
- major HR rate ([4]; LBC/Ph+ ALL, 8/10): 80%
- major HR confirmed after 4 weeks ([4]; MBC patients, 7): 30%
- major HR ([4]; MBC patients, 14/23): 61%
- patients who remain on the study ([4]; MBC, 6 of 23, follow-up ranging 5-12 months): 26%
- Hematologic response: CHR ([4]; MBC-CML n = 23): 8 (35)
- Hematologic response: Major HR ([4]; MBC-CML n = 23): 14 (61)
- Hematologic response: Minor HR ([4]; MBC-CML n = 23): 4 (17)
- Hematologic response: NEL ([4]; MBC-CML n = 23): 6 (26)
- patients who failed to meet the criteria for major or minor hematologic response ([4]; Nine of the 44 patients): 20%
- Hematologic response: CHR ([4]; Total N = 44): 20 (45)
- Hematologic response: Major HR ([4]; Total N = 44): 31 (70)
- Hematologic response: Minor HR ([4]; Total N = 44): 4 (9)
- Hematologic response: NEL ([4]; Total N = 44): 11 (25)
- patients who responded ([4]; complex karyotypes, 17 of 25 patients): 68%
- relapsed within 6 months ([4]; lymphoid blast crisis or Ph+ ALL): all but one patient
- patients with durable responses for 10 months or longer ([4]; of the 8 Myeloid BC patients who achieved CHR): 3
- patients who responded ([4]; simple Ph karyotypes, 17 of 18 patients): 94%
- CHR ([4]; total patient population, 20/44): 45%
- major HR ([4]; total patient population, 31/44): 70%
